Measurements as given in ChEMBL document CHEMBL1201862, “PubChem BioAssay data set” (2004).
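Test compounds were applied to cells in 96-well plates for 48 hours at 5 doses. GI50 is the concentration that inhibits growth by half.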 The source made the active and inactive calls. Rule as the data show it: active = GI50 up to about 1.1 µM and inactive = higher.

Tests used:
Assay in all cases: NCI-60 cell line screen, 48 h
[1] = system: CAKI-1
[2] = system: CCRF-CEM
[3] = system: HOP-18
[4] = system: LXFL 529
[5] = system: SF-539
[6] = system: NCI-H226
[7] = system: RXF 393
[8] = system: HOP-62
[9] = system: M19-MEL
[10] = system: 786-0
[11] = system: MOLT-4
[12] = system: M14
[13] = system: KM12
[14] = system: UACC-257
[15] = system: SNB-75
[16] = system: RPMI-8226
[17] = system: SNB-78
[18] = system: DLD-1
[19] = system: SW-620
[20] = system: NCI-H522
[21] = system: DMS-273
[22] = system: SF-295
[23] = system: HCT-15
[24] = system: XF498
[25] = system: HT-29
[26] = system: A498
[27] = system: NCI-H23
[28] = system: K562
[29] = system: NCI-H460
[30] = system: Malme-3M
[31] = system: SK-MEL-5
[32] = system: EKVX
[33] = system: LOX IMVI
[34] = system: SNB-19
[35] = system: HL-60
[36] = system: U-251
[37] = system: DMS-114
[38] = system: HOP-92
[39] = system: HCT-116
[40] = system: OVCAR-8
[41] = system: OVCAR-5
[42] = system: SK-OV-3
[43] = system: COLO 205
[44] = system: UO-31
[45] = system: SF-268
[46] = system: OVCAR-3
[47] = system: OVCAR-4
[48] = system: KM-20L2
[49] = system: IGROV-1
[50] = system: TK-10
[51] = system: UACC-62
[52] = system: SK-MEL-2
[53] = system: SN12C
[54] = system: A549

`Cc1cc(C(C)(C)C)cc(Cc2cc(C(C)(C)C)cc(Cc3cc(C(C)(C)C)cc(C)c3O)c2O)c1O` was tested, and the GI50 [1] was 12.6 µM (inactive), the GI50 [2] was 3.04 µM (inactive) and the GI50 [3] was 15.4 µM (inactive). For the same compound, the GI50 [4] was 8.04 µM (inactive), the GI50 [5] was 7.71 µM (inactive) and the GI50 [6] was 12.1 µM (inactive). For the same compound, the GI50 [7] was 2.19 µM (inactive), the GI50 [8] was 15.4 µM (inactive) and the GI50 [9] was 3.77 µM (inactive). The GI50 [10] was 5.64 µM (inactive), the GI50 [11] was 3.04 µM (inactive) and the GI50 [12] was 7.26 µM (inactive). The GI50 [13] was 9.66 µM (inactive), the GI50 [14] was 8.45 µM (inactive) and the GI50 [15] was 4.49 µM (inactive). For the same compound, the GI50 [16] was 2.47 µM (inactive), the GI50 [17] was 4.98 µM (inactive) and the GI50 [18] was 6.05 µM (inactive). For the same compound, the GI50 [19] was 5.28 µM (inactive), the GI50 [20] was 3.71 µM (inactive) and the GI50 [21] was 10.9 µM (inactive). The GI50 [22] was 16 µM (inactive), the GI50 [23] was 11.9 µM and the GI50 [24] was 1.65 µM (inactive). The GI50 [25] was 11.7 µM (inactive), the GI50 [26] was 19.5 µM (inactive) and the GI50 [27] was 10 µM (inactive). For the same compound, the GI50 [28] was 4.54 µM (inactive), the GI50 [29] was 10.1 µM (inactive) and the GI50 [30] was 10.7 µM (inactive). For the same compound, the GI50 [31] was 10 µM (inactive), the GI50 [32] was 10.8 µM (inactive) and the GI50 [33] was 7.73 µM (inactive). The GI50 [34] was 13 µM (inactive), the GI50 [35] was 3.71 µM (inactive) and the GI50 [36] was 4.07 µM (inactive). For the same compound, the GI50 [37] was 4.21 µM (inactive), the GI50 [38] was 2.94 µM (inactive) and the GI50 [39] was 3.13 µM (inactive). For the same compound, the GI50 [40] was 5.5 µM (inactive), the GI50 [41] was 17.5 µM (inactive) and the GI50 [42] was 14.1 µM (inactive). For the same compound, the GI50 [43] was 16.2 µM (inactive), the GI50 [44] was 13.2 µM (inactive) and the GI50 [45] was 2.89 µM (inactive). For the same compound, the GI50 [46] was 4.75 µM (inactive), the GI50 [47] was 7.5 µM (inactive) and the GI50 [48] was 16.1 µM (inactive). For the same compound, the GI50 [49] was 11.3 µM (inactive), the GI50 [50] was 16.3 µM (inactive) and the GI50 [51] was 6.84 µM (inactive). The GI50 [52] was 10.4 µM (inactive), the GI50 [53] was 7.28 µM (inactive) and the GI50 [54] was 5.86 µM (inactive).
